Values after ≈ are worked out from the molar mass of the structure shown. Where two headings read alike, the source gives them in different places.
How the values were obtained:
E. faecalis VSE 1 = assay: MIC, broth microdilution, vancomycin-sensitive E. faecalis (VSE 1); assay type: cell-based, Enterococcus faecalis
In short: (§1)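 CLSI broth microdilution; water and uninoculated-broth controls; one arm supplemented with vancomycin, final 10 μM, given with analogue or control antibiotic.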

E. faecalis VRE 6 = assay: MIC, broth microdilution, vancomycin-resistant E. faecalis VRE 6 (VanA); assay type: cell-based, Enterococcus faecalis
In short: as §1

E. faecalis VRE 53 = assay: MIC, broth microdilution, vancomycin-resistant E. faecalis VRE 53 (VanA); assay type: cell-based, Enterococcus faecalis
In short: as §1

E. faecalis VRE 29 = assay: MIC, broth microdilution, vancomycin-resistant E. faecalis VRE 29 (VanA); assay type: cell-based, Enterococcus faecalis
In short: as §1

E. faecalis VRE 37 = assay: MIC, broth microdilution, vancomycin-resistant E. faecalis VRE 37 (VanA); assay type: cell-based, Enterococcus faecalis
In short: as §1

[1] = test system: Murine leukemia (L1210) cells; assay: Cytostatic activity, L1210 cell proliferation; assay type: cell-based; settings: mean ± SD of three experiments; highest concentration tested 250 µM; 2 days; read-out: Toxicity (IC50) L1210
In short: (§2)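 Coulter counter cell counts after 37°C culture with compound; IC50 = concentration giving 50% growth inhibition vs negative control. Incubation: L1210 2 d, CEM 3 d, HeLa 4 d. Suspension density before mixing with an equal volume of dilution: 300,000–500,000 cells/mL.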

[2] = test system: human T-lymphocyte (CEM) cells; assay: Cytostatic activity, CEM cell proliferation; assay type: cell-based; settings: mean ± SD of three experiments; highest concentration tested 250 µM; 3 days; read-out: Toxicity (IC50) CEM
In short: as §2

[3] = test system: human cervix carcinoma (HeLa) cells; assay: Cytostatic activity, HeLa cell proliferation; assay type: cell-based; settings: mean ± SD of three experiments; highest concentration tested 250 µM; 4 days; read-out: Toxicity (IC50) HeLa
In short: as §2

[4] = test system: L1210, CEM and HeLa cell lines; assay: Cytostatic activity, average or summary over L1210, CEM and HeLa; assay type: cell-based
In short: as §2

[5] = test system: S. aureus VSSA (ATCC 6538); assay: MIC, broth microdilution, vancomycin-sensitive S. aureus (VSSA/MSSA, ATCC 6538); assay type: cell-based, Staphylococcus aureus
In short: as §1

S. aureus VISA/HIP5827 = assay: MIC, broth microdilution, vancomycin-intermediate S. aureus VISA HIP5827; assay type: cell-based, Staphylococcus aureus
In short: as §1

S. aureus VRSA = assay: MIC, broth microdilution, vancomycin-resistant S. aureus (VRSA); assay type: cell-based, Staphylococcus aureus
In short: as §1

MRSA KS2 = assay: MIC, broth microdilution, MRSA KS2; assay type: cell-based, Staphylococcus aureus
In short: as §1

MRSA KS6 = assay: MIC, broth microdilution, MRSA KS6; assay type: cell-based, Staphylococcus aureus
In short: as §1

MRSA KS89 = assay: MIC, broth microdilution, MRSA KS89; assay type: cell-based, Staphylococcus aureus
In short: as §1

MRSA KS1 = assay: MIC, broth microdilution, MRSA KS1; assay type: cell-based, Staphylococcus aureus
In short: as §1

33 clinical VRE isolates = assay: MIC against a set of 33 clinical VRE isolates (range, MIC50, TI); assay type: cell-based, Enterococcus faecalis
In short: as §1

[6] = test system: 24 clinical MRSA isolates; assay: MIC against a set of 24 clinical MRSA isolates (range, MIC50, TI); assay type: cell-based, Staphylococcus aureus
In short: as §1

[7] = test system: Clostridium difficile ATJ ribotype 014/20; assay: MIC, plate drop assay, C. difficile ATJ ribotype 014/20; assay type: cell-based; settings: C. difficile ATJ ribotype 014/20
In short: (§3)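 Lawns of each strain were made in soft BHI agar (0.4%) supplemented with CaCl2⋅2H2O and MgCl2⋅6H2O. Twofold compound dilutions (10 μL) were spotted, air-dried and incubated overnight at 37°C anaerobically; MIC read as cleared spots, in triplicate with water as negative control.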

[8] = test system: Clostridium difficile AIU ribotype 027; assay: MIC, plate drop assay, C. difficile AIU ribotype 027; assay type: cell-based; settings: C. difficile AIU ribotype 027
In short: as §3

VE 148 (VanB) = assay: MIC, VanB-type VRE strain VE 148; assay type: cell-based, Enterococcus; settings: VE 148, VanB; read-out: MIC
In short: as §1

VE 149 (VanB) = assay: MIC, VanB-type VRE strain VE 149; assay type: cell-based, Enterococcus; settings: VE 149, VanB; read-out: MIC
In short: as §1

VE 150 (VanB) = assay: MIC, VanB-type VRE strain VE 150; assay type: cell-based, Enterococcus; settings: VE 150, VanB; read-out: MIC
In short: as §1

VE 152 (VanB) = assay: MIC, VanB-type VRE strain VE 152; assay type: cell-based, Enterococcus; settings: VE 152, VanB; read-out: MIC
In short: as §1

VE 157 (VanB) = assay: MIC, VanB-type VRE strain VE 157; assay type: cell-based, Enterococcus; settings: VE 157, VanB; read-out: MIC
In short: as §1

VE 82 (VanC1) = assay: MIC, VanC1-type VRE strain VE 82; assay type: cell-based, Enterococcus gallinarum; settings: VE 82, VanC1; read-out: MIC
In short: as §1

MRSA = assay: Minimum bactericidal concentration against MRSA; assay type: cell-based, Staphylococcus aureus
Experimental: Plates were incubated overnight at 37°C and colony growth was inspected.

For `CCCCc1ccc(NC(=O)CNC(=O)[C@H]2NC(=O)[C@H]3NC(=O)[C@H](NC(=O)[C@@H]4NC(=O)[C@H](CC(N)=O)NC(=O)[C@H](NC(=O)[C@@H](CC(C)C)NC)[C@H](O)c5ccc(c(Cl)c5)Oc5cc4cc(c5O[C@@H]4O[C@H](CO)[C@@H](O)[C@H](O)[C@H]4O[C@H]4C[C@](C)(N)[C@H](O)[C@H](C)O4)Oc4ccc(cc4Cl)[C@H]3O)c3ccc(O)c(c3)-c3c(O)cc(O)cc32)cc1` [Vanc-39], the MIC (E. faecalis VSE 1; Enterococcus faecalis VSE 1 (vancomycin-sensitive), read-out: MIC) was 0.20 µM (≈ 0.328 µg/mL), the “MIC-fold improvement vs. vancomycin” value (E. faecalis VSE 1; VSE 1, ratio of MIC of vancomycin and MIC of analogue) was 8 and the MIC (E. faecalis VRE 6; Enterococcus faecalis VRE 6 (vancomycin-resistant), read-out: MIC) was 3.13 µM (≈ 5.13 µg/mL). The “MIC-fold improvement vs. vancomycin” value (E. faecalis VRE 6; VRE 6, ratio of MIC of vancomycin and MIC of analogue) was 64, the MIC (E. faecalis VRE 53; Enterococcus faecalis VRE 53 (vancomycin-resistant), read-out: MIC) was 50 µM (≈ 81.9 µg/mL) and the “MIC-fold improvement vs. vancomycin” value (E. faecalis VRE 53; VRE 53, ratio of MIC of vancomycin and MIC of analogue) was 8. For the same molecule, the MIC (E. faecalis VRE 29; Enterococcus faecalis VRE 29 (vancomycin-resistant), read-out: MIC) was 6.25 µM (≈ 10.2 µg/mL), the “MIC-fold improvement vs. vancomycin” value (E. faecalis VRE 29; VRE 29, ratio of MIC of vancomycin and MIC of analogue) was 64 and the MIC (E. faecalis VRE 37; Enterococcus faecalis VRE 37 (vancomycin-resistant), read-out: MIC) was 6.25 µM (≈ 10.2 µg/mL). The “MIC-fold improvement vs. vancomycin” value (E. faecalis VRE 37; VRE 37, ratio of MIC of vancomycin and MIC of analogue) was 64, the IC50 [1] was > 250 µM and the IC50 [2] was > 250 µM. The IC50 [3] was > 250 µM, the IC50 ([4]; average IC50 used for TI in Table S5, >250 entered as 250, read-out: IC50) was 250 µM and the IC50 ([4]; average of L1210, CEM and HeLa, read-out: Toxicity (IC50) Average) was > 250 µM. The IC50 ([4]; summary over the three cell lines, read-out: IC50 (L1210, CEM, HeLa), depending on the cell line used) was > 250 µM, the MIC ([5]; Staphylococcus aureus VSSA, read-out: MIC) was 0.05 µM (≈ 0.0819 µg/mL) and the “MIC-fold improvement vs. vancomycin” value ([5]; VSSA, ratio of MIC of vancomycin and MIC of analogue) was 16. The MIC (S. aureus VISA/HIP5827; Staphylococcus aureus VISA/HIP5827, read-out: MIC) was 0.39 µM (≈ 0.639 µg/mL), the “MIC-fold improvement vs. vancomycin” value (S. aureus VISA/HIP5827; VISA/HIP5827, ratio of MIC of vancomycin and MIC of analogue) was 16 and the MIC (S. aureus VRSA; Staphylococcus aureus VRSA, read-out: MIC) was 0.78 µM (≈ 1.28 µg/mL). For the same molecule, the “MIC-fold improvement vs. vancomycin” value (S. aureus VRSA; VRSA, ratio of MIC of vancomycin and MIC of analogue) was 128, the “MIC-fold improvement vs. vancomycin” value (MRSA KS2; MRSA KS2, ratio of MIC of vancomycin and MIC of analogue) was 4 and the MIC (MRSA KS2; Staphylococcus aureus MRSA KS2, read-out: MIC) was 0.20 µM (≈ 0.328 µg/mL). The “MIC-fold improvement vs. vancomycin” value (MRSA KS6; MRSA KS6, ratio of MIC of vancomycin and MIC of analogue) was 4, the MIC (MRSA KS6; Staphylococcus aureus MRSA KS6, read-out: MIC) was 0.20 µM (≈ 0.328 µg/mL) and the “MIC-fold improvement vs. vancomycin” value (MRSA KS89; MRSA KS8, ratio of MIC of vancomycin and MIC of analogue) was 4. The MIC (MRSA KS89; Staphylococcus aureus MRSA KS8, read-out: MIC) was 0.20 µM (≈ 0.328 µg/mL), the “MIC-fold improvement vs. vancomycin” value (MRSA KS1; MRSA KS1, ratio of MIC of vancomycin and MIC of analogue) was 4 and the MIC (MRSA KS1; Staphylococcus aureus MRSA KS1, read-out: MIC) was 0.20 µM (≈ 0.328 µg/mL). The “MIC Range” value (33 clinical VRE isolates; 33 clinical VRE isolates) was 0.78 to 12.5 µM, the “TI (IC50/MIC50)” value (33 clinical VRE isolates; in vitro therapeutic index, VRE) was 80 and the MIC50 (33 clinical VRE isolates; median MIC, 33 clinical VRE isolates, read-out: MIC50) was 3.13 µM (≈ 5.13 µg/mL). For the same molecule, the “TI (IC50/MIC50)” value ([6]; in vitro therapeutic index, MRSA) was 641, the MIC50 ([6]; median MIC, 24 clinical MRSA isolates, read-out: MIC50) was 0.39 µM (≈ 0.639 µg/mL) and the “MIC-fold improvement vs. vancomycin” value [7] was 22. The “MIC-fold improvement vs. vancomycin” value [8] was 14, the MIC (VE 148 (VanB)) was 3.13 µM (≈ 5.13 µg/mL) and the MIC (VE 149 (VanB)) was 0.78 µM (≈ 1.28 µg/mL). It also gave an MIC (VE 150 (VanB)) of 1.56 µM (≈ 2.55 µg/mL), an MIC (VE 152 (VanB)) of 0.78 µM (≈ 1.28 µg/mL) and an MIC (VE 157 (VanB)) of 0.78 µM (≈ 1.28 µg/mL). The MIC (VE 82 (VanC1)) was 0.78 µM (≈ 1.28 µg/mL) and the “MBC relative to MIC” value (MRSA) was “MBC equaling their MIC values”.

From paper PMC6001238, “Iterative Chemical Engineering of Vancomycin Leads to Novel Vancomycin Analogs With a High in Vitro Therapeutic Index” (Frontiers in Microbiology, 2018)
